From ChEMBL document CHEMBL4229426, “Synthesis, antitumor activity evaluation and mechanistic study of novel hederacolchiside A1 derivatives bearing an aryl triazole moiety” (Bioorg Med Chem, 2018)

What was measured:
Format in all cases: functional, cell-based
[1] = tested on: HT-29; test: Antiproliferative activity against human HT-29 cells after 48 hrs by MTT assay; conditions: HT-29, 48 h
[2] = tested on: HepG2; test: Antiproliferative activity against human HepG2 cells after 48 hrs by MTT assay; conditions: HepG2, 48 h
[3] = tested on: HL-60; test: Antiproliferative activity against human HL60 cells after 48 hrs by MTT assay; conditions: HL-60, 48 h
[4] = tested on: A549; test: Antiproliferative activity against human A549 cells after 48 hrs by MTT assay; conditions: A549, 48 h
[5] = tested on: PC-3; test: Antiproliferative activity against human PC3 cells after 48 hrs by MTT assay; conditions: PC-3, 48 h
[6] = tested on: U-937; test: Antiproliferative activity against human U937 cells after 48 hrs by MTT assay; conditions: U-937, 48 h

Row | SMILES | IC50 [1] [µM] | IC50 [2] [µM] | IC50 [3] [µM] | IC50 [4] [µM] | IC50 [5] [µM] | IC50 [6] [µM]
1 | C[C@@H]1O[C@@H](O[C@H]2[C@H](O[C@H]3CC[C@]4(C)[C@H]5CC=C6[C@@H]7CC(C)(C)CC[C@]7(C(=O)NCc7cn(-c8ccc(F)cc8)nn7)CC[C@@]6(C)[C@]5(C)CC[C@H]4C3(C)C)OC[C@H](O[C@@H]3O[C@H](CO)[C@@H](O)[C@H](O)[C@H]3O)[C@@H]2O)[C@H](O)[C@H](O)[C@H]1O | 2.32 | 3.18 | 1.8 | 1.02 | 5.78 | 0.48
2 | C[C@@H]1O[C@@H](O[C@H]2[C@H](O[C@H]3CC[C@]4(C)[C@H]5CC=C6[C@@H]7CC(C)(C)CC[C@]7(C(=O)NCc7cn(-c8ccccc8Cl)nn7)CC[C@@]6(C)[C@]5(C)CC[C@H]4C3(C)C)OC[C@H](O[C@@H]3O[C@H](CO)[C@@H](O)[C@H](O)[C@H]3O)[C@@H]2O)[C@H](O)[C@H](O)[C@H]1O | 4.18 | 3.92 | 2.26 | 1.81 | 5.28 | 1.03
3 | C[C@@H]1O[C@@H](O[C@H]2[C@H](O[C@H]3CC[C@]4(C)[C@H]5CC=C6[C@@H]7CC(C)(C)CC[C@]7(C(=O)NCc7cn(-c8c(Cl)cccc8Cl)nn7)CC[C@@]6(C)[C@]5(C)CC[C@H]4C3(C)C)OC[C@H](O[C@@H]3O[C@H](CO)[C@@H](O)[C@H](O)[C@H]3O)[C@@H]2O)[C@H](O)[C@H](O)[C@H]1O | 37.8 | 23 | 28.2 | 6.68 | 41.9 | 18.4
4 | C[C@@H]1O[C@@H](O[C@H]2[C@H](O[C@H]3CC[C@]4(C)[C@H]5CC=C6[C@@H]7CC(C)(C)CC[C@]7(C(=O)NCc7cn(-c8ccccc8F)nn7)CC[C@@]6(C)[C@]5(C)CC[C@H]4C3(C)C)OC[C@H](O[C@@H]3O[C@H](CO)[C@@H](O)[C@H](O)[C@H]3O)[C@@H]2O)[C@H](O)[C@H](O)[C@H]1O | 30.9 | 5.39 | 5.45 | 7.09 | 39.3 | 4.51
5 | C[C@@H]1O[C@@H](O[C@H]2[C@H](O[C@H]3CC[C@]4(C)[C@H]5CC=C6[C@@H]7CC(C)(C)CC[C@]7(C(=O)NCc7cn(-c8cccnc8)nn7)CC[C@@]6(C)[C@]5(C)CC[C@H]4C3(C)C)OC[C@H](O[C@@H]3O[C@H](CO)[C@@H](O)[C@H](O)[C@H]3O)[C@@H]2O)[C@H](O)[C@H](O)[C@H]1O | 37.8 | 20.1 | 9.94 | 47.2 | 41.1 | 9.03
6 | O=c1[nH]cc(F)c(=O)[nH]1 [FLUOROURACIL] | 22.2 | 59.1 | 54.5 | 69.1 | 8.45 | 56.3
7 | CC(=O)c1ccccc1-n1cc(CNC(=O)[C@]23CCC(C)(C)C[C@H]2C2=CC[C@@H]4[C@@]5(C)CC[C@H](O[C@@H]6OC[C@H](O[C@@H]7O[C@H](CO)[C@@H](O)[C@H](O)[C@H]7O)[C@H](O)[C@H]6O[C@@H]6O[C@@H](C)[C@H](O)[C@@H](O)[C@H]6O)C(C)(C)[C@@H]5CC[C@@]4(C)[C@]2(C)CC3)nn1 | 35.6 | 12.4 | 14.3 | 10.5 | 49.6 | 11.3
8 | COc1ccc(-n2cc(CNC(=O)[C@]34CCC(C)(C)C[C@H]3C3=CC[C@@H]5[C@@]6(C)CC[C@H](O[C@@H]7OC[C@H](O[C@@H]8O[C@H](CO)[C@@H](O)[C@H](O)[C@H]8O)[C@H](O)[C@H]7O[C@@H]7O[C@@H](C)[C@H](O)[C@@H](O)[C@H]7O)C(C)(C)[C@@H]6CC[C@@]5(C)[C@]3(C)CC4)nn2)cc1 | 1.13 | 3.58 | 2.48 | 4.86 | 0.55 | 0.79
9 | Cc1cccc(-n2cc(CNC(=O)[C@]34CCC(C)(C)C[C@H]3C3=CC[C@@H]5[C@@]6(C)CC[C@H](O[C@@H]7OC[C@H](O[C@@H]8O[C@H](CO)[C@@H](O)[C@H](O)[C@H]8O)[C@H](O)[C@H]7O[C@@H]7O[C@@H](C)[C@H](O)[C@@H](O)[C@H]7O)C(C)(C)[C@@H]6CC[C@@]5(C)[C@]3(C)CC4)nn2)c1 | 4.33 | 3.49 | 4.64 | 0.18 | 3.93 | 3.93
10 | Cc1ccccc1-n1cc(CNC(=O)[C@]23CCC(C)(C)C[C@H]2C2=CC[C@@H]4[C@@]5(C)CC[C@H](O[C@@H]6OC[C@H](O[C@@H]7O[C@H](CO)[C@@H](O)[C@H](O)[C@H]7O)[C@H](O)[C@H]6O[C@@H]6O[C@@H](C)[C@H](O)[C@@H](O)[C@H]6O)C(C)(C)[C@@H]5CC[C@@]4(C)[C@]2(C)CC3)nn1 | 5.35 | 1.51 | 3.84 | 4.13 | 5.03 | 4.68
11 | C[C@@H]1O[C@@H](O[C@H]2[C@H](O[C@H]3CC[C@]4(C)[C@H]5CC=C6[C@@H]7CC(C)(C)CC[C@]7(C(=O)NCc7cn(-c8cccc(Br)c8)nn7)CC[C@@]6(C)[C@]5(C)CC[C@H]4C3(C)C)OC[C@H](O[C@@H]3O[C@H](CO)[C@@H](O)[C@H](O)[C@H]3O)[C@@H]2O)[C@H](O)[C@H](O)[C@H]1O | 1.77 | 7.29 | 0.99 | 0.89 | 0.49 | 0.72
12 | C[C@@H]1O[C@@H](O[C@H]2[C@H](O[C@H]3CC[C@]4(C)[C@H]5CC=C6[C@@H]7CC(C)(C)CC[C@]7(C(=O)NCc7cn(-c8ccccc8[N+](=O)[O-])nn7)CC[C@@]6(C)[C@]5(C)CC[C@H]4C3(C)C)OC[C@H](O[C@@H]3O[C@H](CO)[C@@H](O)[C@H](O)[C@H]3O)[C@@H]2O)[C@H](O)[C@H](O)[C@H]1O | 7.76 | 34.9 | 36.7 | 54.9 | 50.5 | 40.1
13 | C[C@@H]1O[C@@H](O[C@H]2[C@H](O[C@H]3CC[C@]4(C)[C@H]5CC=C6[C@@H]7CC(C)(C)CC[C@]7(C(=O)NCc7cn(-c8ccc(Cl)cc8)nn7)CC[C@@]6(C)[C@]5(C)CC[C@H]4C3(C)C)OC[C@H](O[C@@H]3O[C@H](CO)[C@@H](O)[C@H](O)[C@H]3O)[C@@H]2O)[C@H](O)[C@H](O)[C@H]1O | 41 | 2.13 | 4.52 | 1.87 | 5.64 | 0.94
14 | COc1ccccc1-n1cc(CNC(=O)[C@]23CCC(C)(C)C[C@H]2C2=CC[C@@H]4[C@@]5(C)CC[C@H](O[C@@H]6OC[C@H](O[C@@H]7O[C@H](CO)[C@@H](O)[C@H](O)[C@H]7O)[C@H](O)[C@H]6O[C@@H]6O[C@@H](C)[C@H](O)[C@@H](O)[C@H]6O)C(C)(C)[C@@H]5CC[C@@]4(C)[C@]2(C)CC3)nn1 | 44.4 | 17.7 | 12.2 | 6.99 | 38 | 7.73
15 | C[C@@H]1O[C@@H](O[C@H]2[C@H](O[C@H]3CC[C@]4(C)[C@H]5CC=C6[C@@H]7CC(C)(C)CC[C@]7(C(=O)NCc7cn(-c8ccc(C(F)(F)F)cc8)nn7)CC[C@@]6(C)[C@]5(C)CC[C@H]4C3(C)C)OC[C@H](O[C@@H]3O[C@H](CO)[C@@H](O)[C@H](O)[C@H]3O)[C@@H]2O)[C@H](O)[C@H](O)[C@H]1O | 4.56 | 2.45 | 5.23 | 4.9 | 3.98 | 0.95
16 | C[C@@H]1O[C@@H](O[C@H]2[C@H](O[C@H]3CC[C@]4(C)[C@H]5CC=C6[C@@H]7CC(C)(C)CC[C@]7(C(=O)NCc7cn(-c8ccccc8Br)nn7)CC[C@@]6(C)[C@]5(C)CC[C@H]4C3(C)C)OC[C@H](O[C@@H]3O[C@H](CO)[C@@H](O)[C@H](O)[C@H]3O)[C@@H]2O)[C@H](O)[C@H](O)[C@H]1O | 5.11 | 2.95 | 3.11 | 2.08 | 5.29 | 0.78
17 | CC(=O)c1cccc(-n2cc(CNC(=O)[C@]34CCC(C)(C)C[C@H]3C3=CC[C@@H]5[C@@]6(C)CC[C@H](O[C@@H]7OC[C@H](O[C@@H]8O[C@H](CO)[C@@H](O)[C@H](O)[C@H]8O)[C@H](O)[C@H]7O[C@@H]7O[C@@H](C)[C@H](O)[C@@H](O)[C@H]7O)C(C)(C)[C@@H]6CC[C@@]5(C)[C@]3(C)CC4)nn2)c1 | 3.33 | 0.5 | 5.66 | 0.44 | 6.28 | 0.81
18 | C[C@@H]1O[C@@H](O[C@H]2[C@H](O[C@H]3CC[C@]4(C)[C@H]5CC=C6[C@@H]7CC(C)(C)CC[C@]7(C(=O)O)CC[C@@]6(C)[C@]5(C)CC[C@H]4C3(C)C)OC[C@H](O[C@@H]3O[C@H](CO)[C@@H](O)[C@H](O)[C@H]3O)[C@@H]2O)[C@H](O)[C@H](O)[C@H]1O [HEDERACOLCHISIDE A1] | 4.77 | 4.21 | 3.13 | 5.41 | 0.85 | 2.37
19 | C[C@@H]1O[C@@H](O[C@H]2[C@H](O[C@H]3CC[C@]4(C)[C@H]5CC=C6[C@@H]7CC(C)(C)CC[C@]7(C(=O)NCc7cn(-c8cccc(F)c8)nn7)CC[C@@]6(C)[C@]5(C)CC[C@H]4C3(C)C)OC[C@H](O[C@@H]3O[C@H](CO)[C@@H](O)[C@H](O)[C@H]3O)[C@@H]2O)[C@H](O)[C@H](O)[C@H]1O | 2.23 | 0.9 | 1.32 | 4.25 | 0.72 | 3.12
